As a reminder, the EC95 is the point of the concentration-response curve where the effect stands at 95%. Low readings indicate an effect from little substance, high ones a need for much substance. The term EC50 denotes the midpoint of the concentration-response curve. What is called IC50 is the concentration needed to halve the response being measured. In general, CC50 refers to the concentration that lowers cell viability or growth by half. High values mean lower toxicity to the cells, low ones greater toxicity to the cells.

The structures appear in SMILES notation. Where two headings read alike, the source gives them in different places. Where only a bound is given, the exact number is not on record here.

This is an account of results in patent US5834506A, “Dihydropyrones with improved antiviral activity” (Warner-Lambert Company, priority 1997, dated 1998).

The subject of data set [1] is HIV in lymphocyte derived CEM cells. The data set is described as follows: Cellular Infection Assay, antiviral efficacy in HIV infected CEM cells (XTT cytopathic procedure). The class given is cell-based. As to conditions: Human immunodeficiency virus 1, CCRF-CEM, CEM cells; for EC95: protecting the cells 95% relative to untreated control; for EC50: reduces HIV cytopathic effects 50% relative to untreated control, read-out: Antiviral Efficacy EC50. On the procedure:
(§1) The compounds of the present invention were evaluated for their in vitro inhibition of HIV-1 protease and for their antiviral efficacy in HIV infected lymphocytes.
(§2) Compounds were tested in lymphocyte derived CEM cells using the XTT cytopathic procedures and were performed at Southern Research Institute (Buckheit, et. al. Antiviral Res. 1993, 21, 247; see also Weislow, et al. J Nat. Cancer Inst., 1989, 81, 577). Compound concentrations were 0.32, 1, 3.2, 10, 32 and 100 uM. The EC50 represents the concentration of agent which reduces HIV cytopathic effects 50% relative to untreated control. EC95 represents the concentration of agent protecting the cells 95% relative to untreated control. Cellular toxicity of the agents are estimated from the TC50 which represents the concentration of the agent which inhibits 50% of the viability of uninfected cells.
Background: Tetrazolium assays rely on reduction of a dye to a coloured formazan, in cell work by metabolically active cells.

A further data set addresses T1, HIV-1 protease (Human immunodeficiency virus type 1 group M subtype B, UniProt P04585).
T1 construct: Recombinant HIV-1 protease (>96% purity); purchased Bachem Bioscience Inc. (King of Prussia, PA)
The data set is described as follows: biochemical. The note with it: read-out: Inhib of HIV-Protease IC50.
Text: The testing of specific 5,6-dihydropyrones as inhibitors of the HIV aspartyl protease, based on the study of the hydrolysis of an undecapeptide enzyme substrate, and the testing of the 5,6-dihydropyrones as inhibitors of viral growth and infectivity, based on the study of infection of H9 cell lines by the HIV-1iiib strain, are also disclosed. […] The methods employed follow the procedures of Tummino, et al. (Archives of Biochemistry and Biophysics 1995, 316, 523).
as §1
Recombinant HIV-1 protease (>96% purity) and HIV protease substrate III (the undecapeptide H-His-Lys-Ala-Arg-Val-Leu-Nph-Glu-Ala-Nle-Ser-NH2,>97% purity) were purchased from Bachem Bioscience Inc. (King of Prussia, PA).
The methods employed follow the procedures of Tummino, et al. (Archives of Biochemistry and Biophysics 1995, 316, 523). […] (total volume, 100 μl). […] The final inhibitor concentrations used were 0 (0.1, 0.2, in some experiments), 0.5, 1, 2, 5, 10, 20, 50, and 100 μM. The solution was mixed, incubated for 5 minutes and the reaction quenched by addition of trifluoracetic acid, 2% final. The (leu-p-nitro-phe) bond of the substrate is cleaved by the enzyme and substrate and products separated by reverse-phase HPLC. Absorbance was measured at 220 nm, peak areas determined, and percentage conversion to product used to calculate percentage control (=[% conversion (+inhibitor)/% conversion (-inhibitor)]×100).

Data set [2] is described as follows: Cellular toxicity in uninfected CEM cells (TC50). The class given is cell-based. As to conditions: human, inhibits 50% of the viability of uninfected cells. On the procedure: as §2
The mark [3] stands for this setting: 6.0 nM HIV-1 protease, 40 μM substrate III, 37° C., 5 minutes.

Regarding `Cc1cc(SC2=C(O)CC(CCc3ccc(O)cc3)(C(C)C)OC2=O)c(C(C)(C)C)cc1NC(=O)c1ccccc1` (stereo not shown) [Example 58], in data set [1], the EC95 was 24000 nM and the concentration giving a half-maximal response (EC50) is 2800 nM. Also, the IC50 at HIV-1 protease (setting [3]) was 21 nM. In data set [2], half-maximal cytotoxicity (CC50) was put at 66000 nM.

For `Cc1cc(SC2=C(O)CC(CCc3ccc4c(c3)OCO4)(C(C)C)OC2=O)c(C(C)(C)C)cc1CO` (stereo not shown) [Example 61], in data set [1], it took 15000 nM to reach the 95% level (EC95) and the EC50 is 1000 nM. Moreover, on HIV-1 protease (setting [3]), the IC50 is 3.1 nM. The compound also had a half-maximal cytotoxic concentration (CC50) in data set [2] of 78000 nM.

As to `Cc1cc(SC2=C(O)CC(CCc3ccc(O)cc3)(C3CCCC3)OC2=O)c(C(C)(C)C)cc1CO` (stereo not shown) [Example 62], in data set [1], the 95% effect level (EC95) was put at 2500 nM and the EC50 is 600 nM. Besides, the concentration for half-maximal inhibition (IC50) at HIV-1 protease (setting [3]) is 3.1 nM. In data set [2], this compound came in with a 50% cytotoxic concentration (CC50) greater than 100000 nM.

On to `Cc1cc(SC2=C(O)CC(CCc3ccc(O)cc3)(C(C)C)OC2=O)c(C(C)(C)C)cc1OS(=O)(=O)N1CCN(C)CC1` (stereo not shown) [Example 67], for which, in data set [1], it took 2000 nM to reach the 95% level (EC95) and the EC50 was 500 nM. In addition, the IC50 at HIV-1 protease was determined as 3.1 nM. The CC50 in data set [2] was greater than 100000 nM.

With `Cc1cc(SC2=C(O)CC(C)(CCc3ccc(O)cc3)OC2=O)c(C(C)(C)C)cc1NC(=O)c1ccc(C#N)cc1` (stereo not shown) [Example 68], in data set [1], the 95% effect level (EC95) was put at 30000 nM and the EC50 was 16000 nM. Besides, the IC50 on HIV-1 protease (setting [3]) amounted to 56 nM. This compound came in with a CC50 in data set [2] greater than 100000 nM.

For `Cc1cc(SC2=C(O)CC(C)(CCc3ccc(O)cc3)OC2=O)c(C(C)(C)C)cc1NS(=O)(=O)c1ccc(F)cc1` (stereo not shown) [Example 71], in data set [1], the 95% effect level (EC95) was put at 8600 nM and the EC50 turned out to be 2400 nM. Besides, the concentration for half-maximal inhibition (IC50) on HIV-1 protease (setting [3]) is 3.7 nM. Moreover, the midpoint of cytotoxicity in data set [2], the CC50, lay at 93000 nM.

Take `Cc1cc(SC2=C(O)CC(CCc3ccc(N)cc3C)(C3CCCCC3)OC2=O)c(C(C)(C)C)cc1CO` (stereo not shown) [Example 72]: in data set [1], it took 8500 nM to reach the 95% level (EC95) and the EC50 is 500 nM. In addition, the IC50 at HIV-1 protease (setting [3]) stood at 4.4 nM. Moreover, the CC50 in data set [2] is 66000 nM.

Consider `Cc1cc(SC2=C(O)CC(CCc3ccc(O)cc3)(C(C)C)OC2=O)c(C(C)(C)C)cc1NS(=O)(=O)c1cccs1` (stereo not shown) [Example 77], for which, in data set [1], the EC95 came to 5200 nM and the EC50 came out at 1800 nM. Moreover, the IC50 at HIV-1 protease (setting [3]) is 8.7 nM. For the same compound, the CC50 in data set [2] is greater than 100000 nM.

With `Cc1cc(SC2=C(O)CC(CCc3ccc(O)cc3)(C(C)C)OC2=O)c(C(C)(C)C)cc1NC(=S)N1CCNCC1` (stereo not shown) [Example 83], in data set [1], it took 92000 nM to reach the 95% level (EC95) and the EC50 was found to be 43000 nM. The IC50 on HIV-1 protease (setting [3]) is 41 nM. The compound also showed a CC50 in data set [2] greater than 100000 nM.

As for `Cc1cc(SC2=C(O)CC(CCc3ccc(N)cc3)(C(C)C)OC2=O)c(C(C)(C)C)cc1OS(=O)(=O)c1ccc(C#N)cc1` (stereo not shown) [Example 86], in data set [1], the EC95 came out at 3700 nM and the EC50 was 400 nM. The IC50 on HIV-1 protease (setting [3]) was determined as 1.3 nM. The compound further yielded a CC50 in data set [2] of 53000 nM.

`CCNS(=O)(=O)Oc1cc(C(C)(C)C)c(SC2=C(O)CC(CCc3ccc(O)cc3)(C3CCN(C(C)=O)CC3)OC2=O)cc1C` (stereo not shown) [Example 89]: in data set [1], the EC95 was 89000 nM and the EC50 worked out at 32000 nM. Also, the IC50 at HIV-1 protease (setting [3]) was determined as 12 nM. The CC50 in data set [2] was greater than 100000 nM.

On to `Cc1cc(SC2=C(O)CC(CCc3ccc(O)cc3)(C(C)C)OC2=O)c(C(C)(C)C)cc1N(C)C` (stereo not shown) [Example 93], for which, in data set [1], it took 10000 nM to reach the 95% level (EC95) and the EC50 stood at 1900 nM. In addition, on HIV-1 protease (setting [3]), the IC50 amounted to 11 nM. This compound gave a CC50 in data set [2] of 68000 nM.

Turning to `Cc1cc(SC2=C(O)CC(CCc3ccc(O)cc3)(C3CCC3)OC2=O)c(C(C)(C)C)cc1CO` (stereo not shown) [Example 98], in data set [1], the EC95 is 1900 nM and the EC50 was 800 nM. For the same compound, the IC50 on HIV-1 protease (setting [3]) worked out at 2.2 nM. For the same compound, the CC50 in data set [2] was greater than 100000 nM.

For the compound `Cc1ccc(C(C)(C)C)c(SC2=C(O)CC(CCc3ccccc3)(CCc3ccccc3)OC2=O)c1` [Ref A, 3-(2-tert-Butyl-5-methyl-phenylsulfanyl)-4-hydroxy-6,6-diphenethyl-5,6-dihydro-pyran-2-one, reference compound], the EC50 in data set [1] is greater than 23000 nM. The IC50 at HIV-1 protease (setting [3]) stood at 150 nM. The compound also had a CC50 in data set [2] of 23000 nM.

With `Cc1ccc(C(C)(C)C)c(SC2=C(O)CC(CCc3ccccc3)(CCC(C)C)OC2=O)c1` (stereo not shown) [Ref C, 3-(2-tert-Butyl-5-methyl-phenylsulfanyl)-4-hydroxy-6-(3-methyl-butyl)-6-phenethyl-5,6-dihydro-pyran-2-one, reference compound], the EC50 in data set [1] was greater than 28000 nM. Also, at HIV-1 protease (setting [3]), the half-maximal inhibitory concentration (IC50) was determined as 70 nM. Also, half-maximal cytotoxicity in data set [2] (CC50) was put at 28000 nM.
